Calls of active or inactive are those of the source. The calls are words filed in the database; no cut-off is given here. Numbered stars: 1 amine (or outer) side, 2 acyl side, 3 side chain; on linkers, the order of the positions; unused ones are H or OH. Square brackets hold non-standard residues; d marks the D form. Peptide text beside a SMILES is read from it. * marks the point of attachment. X2 = CC(C)C[C@H](N)CN(CC(=O)[*:2])[*:1]; X1 = O=S(=O)(c1ccc(I)cc1)*

Test [1] concerns Pseudomonas aeruginosa. Briefly: Antimicrobial activity against Pseudomonas aeruginosa ATCC 27853 infected in C57BL/6J mouse assessed as reduction in IL-1beta at 2.5 mg/kg, ip measured after 72 hrs […]. It counts as functional, organism-based.
The test system of test [2] is Staphylococcus epidermidis. Briefly: Antibiofilm activity against Staphylococcus epidermidis ATCC 12228 at 2 to 4 ug/ml incubated for 24 hrs by crystal violet staining based microplate reader analysis. The following applies: dose 2-4 µg/ml, at 2 to 4 µg/mL. It counts as functional.
Test [3] deals with Cell membrane. Briefly: Induction of outer membrane disruption in Pseudomonas aeruginosa in presence of FeCl3 by NPN uptake assay. It counts as subcellular.

For `CC(C)C[C@H](N)CN(CC(=O)N[C@@H](CCCCN)C(=O)N[C@@H](CC(C)C)C(=O)N[C@@H](CC(C)C)C(=O)N[C@@H](CCCCN)C(=O)N[C@@H](CCCCN)C(=O)N[C@@H](CC(C)C)C(=O)N[C@@H](CC(C)C)C(N)=O)S(=O)(=O)c1ccc(I)cc1` (X1-[X2]KLLKKLL-NH2), the outcome in test [1] and in test [3] was Active. The same compound gave an Activity in test [2] of 50%.

(Values after ChEMBL document CHEMBL5380773, “Novel Feleucin-K3-Derived Peptides Modified with Sulfono-γ-AA Building Blocks Targeting Pseudomonas aeruginosa and Methicillin-Resistant Staphylococcus aureus Infections” (J Med Chem, 2023).)
